According to patent publication US20240285575A1, “NANOPARTICLES WITH ANTI-INFLAMMATORY PROPERTIES AND ENHANCED PENETRATION ACROSS THE BIOLOGICAL BARRIERS TO DELIVER ENCAPSULATED DRUGS” (The Board of Trustees of The University of Alabama, priority 2023, published 2024):

Columns and labels:
FHs74 cells = conditions: previous study; cited from earlier work
FR on FHs74 cells = experiment: Folate receptor blocking studies in FHs74 cells; type: cell-based, human; conditions: blocking of P2Ns-NAR uptake
Description: FR Specificity to NAR. The FR-mediated transport of P2Ns-NAR was confirmed by performing blocking studies. Folic acid (FA) strongly binds to FR, with the FA frequently being employed as a targeting ligand on nanoparticles for receptor-mediated drug delivery.^29,30 On the other hand, FA in larger doses is also associated with adverse side effects including toxicity to humans.^16,31,32 The use of NAR as an FR-specific ligand could potentially overcome this limitation and provide a safer alternative for receptor-mediated drug delivery. Selective blockade of FR on FHs74 cells was performed to evaluate the FR-mediated uptake of P2Ns-NAR. Cells were saturated with varying concentrations of blocking agents: antifolate antibody (AB), FA, and MTHFA.

## Nc1nc2ncc(CNc3ccc(C(=O)N[C@@H](CCC(=O)O)C(=O)O)cc3)nc2c(=O)[nH]1 [FA, Folic acid]
FHs74 cells
  Time to saturate FHs74 cells: less than 1 hour

## CN1c2c(nc(N)[nH]c2=O)NCC1CNc1ccc(C(=O)N[C@@H](CCC(=O)O)C(=O)O)cc1 (some centres unmarked) [MTHFA, methyltetrahydrofolic acid]
FR on FHs74 cells
  Concentration of blocking agent needed for blocking levels similar to FA: Higher concentrations
